Reference: BindingDB's records for doi:10.1021/jm00147a033 (1985)

How the values were obtained:
[1] = Compound was evaluated for reversible inhibition of hydrolysis acetylcholine by acetylcholinesterase and represented as KI(competitive)
[2] = Compound was evaluated for reversible inhibition of hydrolysis acetylcholine by acetylcholinesterase and represented as KI(noncompetitive)
[3] = Compound was evaluated for reversible inhibition of hydrolysis acetylcholine by acetylcholinesterase and represented as KI(competitive); remark: listed apart in the source
[4] = Compound was evaluated for reversible inhibition of hydrolysis of acetylcholine by acetylcholinesterase and represented as KI(competitive)

Compound	Ki [2] [mM]	Ki [3] [mM]	further results
CC(=O)OCCS(C)(=O)=O [Acetic acid 2-methanesulfonyl-ethyl ester]	–	–	Ki [1]: 6.4 mM
CS(C)(I)CCO [(2-Hydroxy-ethyl)-dimethyl-sulfonium; iodide]	13	–	–
CC(C)(C)CCO [3,3-Dimethyl-butan-1-ol]	19	–	–
CS(=O)(=O)CCO [2-Methanesulfonyl-ethanol]	100	8.7	–
CC(=O)CCC[N+](C)(C)[O-] [5-dimethylamino-2-pentanone-N-oxide]	–	–	Ki [4]: 14 mM
C[N+](C)(C)CCO [2-hydroxy-N,N,N-trimethylethanaminium]	7.6	–	–
C[S+](C)C [Trimethyl-sulfonium; iodide]	7.2	2	–
C[Si](C)(C)CCO [2-Trimethylsilanyl-ethanol]	–	3.3	–
